Legend:
[1] = test system: NIH/3T3 cells transfected with control vector (MOCK); experiment: NIH/3T3 mock cell proliferation assay (CTG, counter assay); type: cell-based; conditions: Mus musculus, NIH3T3; 72-hr incubation, CellTiter Glo; counter assay for general toxicity
Method: NIH/3T3 Mock Cell Proliferation Assay
In day 1, 90 μL of cell suspension (NIH/3T3 cells transfected with the same control vector as in the above two proliferation assays) (total 30,000 cells per well in growth medium (DMEM containing 1% Glutamax, 10% FBS and 1% Pen/Strep)) was seeded in a 96-well plate and then incubated overnight at 37° C. and 5% CO2. In day 2, 10 μL of growth medium containing 10-fold stock solution of testing compound was added into cell cultures (9 dose points with 3× serial dilution, starting with 30 μM, 0.3% DMSO final). After 72-hr incubation at 37° C. and 5% CO2, in day 5 a volume of 50 μL CellTiter Glo (CTG) reagent was added into cell-containing 96-well plate and the plate was incubated at room temperature for 10 minutes before RLUs (relative light unit) were measured on a microplate reader with luminescence detection module. The RLU value was normalized to survival % and concentration-response curve was plotted using Prism to calculate IC50 (M), pIC50 (−log IC50) and HillSlope value.

[2] = target: T1, human FGFR3 wild type enzyme (cytoplasmic domain) (Homo sapiens, UniProt P22607); experiment: FGFR3 wild type mobility shift assay (enzymatic assay, Caliper); type: biochemical; conditions: 75 μM ATP, 50 minutes at 30° C.
T1 construct: human FGFR3 wild type enzyme (cytoplasmic domain, from Cama Biosciences); purchased Carna Biosciences
T1 sequence (P22607 397-806 limits assumed): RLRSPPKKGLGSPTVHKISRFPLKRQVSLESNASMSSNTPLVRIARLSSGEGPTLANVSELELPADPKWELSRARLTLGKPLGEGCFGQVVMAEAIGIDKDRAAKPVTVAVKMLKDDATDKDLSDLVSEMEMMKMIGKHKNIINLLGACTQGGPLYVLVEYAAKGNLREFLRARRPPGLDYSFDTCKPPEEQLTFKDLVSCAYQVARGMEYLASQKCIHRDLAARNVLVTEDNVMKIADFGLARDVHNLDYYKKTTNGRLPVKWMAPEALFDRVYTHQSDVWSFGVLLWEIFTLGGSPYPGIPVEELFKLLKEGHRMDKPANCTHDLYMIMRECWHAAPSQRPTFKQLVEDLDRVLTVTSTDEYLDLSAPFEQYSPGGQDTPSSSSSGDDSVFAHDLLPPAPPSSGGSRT
Method: FGFR3 Wild Type Mobility Shift Assay (Enzymatic Assay)
(§1) In a final reaction volume of 25 μL, 0.04 ng/μL human FGFR3 wild type enzyme (cytoplasmic domain, from Cama Biosciences) was incubated with 75 μM ATP, 1 μM FL-peptide 30 substrate and 250 nL of testing compound (1% DMSO final) in assay buffer (100 mM HEPES pH 7.4, 10 mM MgCl2, 0.003% Brij35, 1 mM DTT). After incubation for 50 minutes at 30° C. the reaction was stopped with 10 μL of 0.5M EDTA pH 8.0, and then L of reaction mixture was transferred to reading plate and measured on Caliper EZ reader II.

[3] = target: T2, human FGFR3 V555M enzyme (cytoplasmic domain carrying V555M mutation) (Homo sapiens, UniProt P22607, V555M); experiment: FGFR3 V555M mobility shift assay (enzymatic assay, Caliper); type: biochemical; conditions: 30 μM ATP, 45 minutes at 30° C.
T2 construct: cytoplasmic domain carrying V555M mutation, from Carna Biosciences; purchased Carna Biosciences
T2 sequence (P22607 397-806 V555M limits assumed): as the sequence (P22607 397-806 limits assumed) above, with V159M counted along it
Method: FGFR3 V555M Mobility Shift Assay (Enzymatic Assay)
as §1, with “FGFR3 V555M” for “FGFR3 wild type”, “(cytoplasmic domain carrying V555M mutation,” for “(cytoplasmic domain,”, “from Carna” for “from Cama”, “with 30” for “with 75”, “for 45” for “for 50”

Row | Compound | IC50 [2] [µM] | IC50 [3] [µM] | IC50 [1] [µM]
1 | CCn1cc2[nH]c(=O)c(-c3nc4cc(OC)c(OC)cc4[nH]3)c(N[C@@H](C)c3cocn3)c2n1 (single isomer, unassigned) [Compound 5A, (S*)-6-(5,6-Dimethoxy-H-benzo[d]imidazol-2-yl)-2-ethyl-7-((1-(oxazol-4-yl)ethyl)-amino)-2H-pyrazolo[4,3-b]pyridin-5 (4H)-one] | – | – | 0.38
2 | CC(C)[C@H](Nc1c(-c2nc3ccc(C(N)=O)cc3[nH]2)c(=O)[nH]c2cn(C)nc12)c1ncccn1 (single isomer, unassigned) [Compound 9, (S*)-2-(2-methyl-7-((2-methyl-1-(pyrimidin-2-yl)propyl)amino)-5-oxo-4,5-dihydro-2H-pyrazolo[4,3-b]pyridin-6-yl)-1H-benzo[d]imidazole-6-carboxamide] | – | – | 2.7
3 | CC(C)[C@H](Nc1c(-c2nc3ccc(C(=O)N(C)C)cc3[nH]2)c(=O)[nH]c2cn(C)nc12)c1ncccn1 (single isomer, unassigned) [Compound 10, (S*)—N,N-dimethyl-2-(2-methyl-7-((2-methyl-1-(pyrimidin-2-yl)propyl)amino)-5-oxo-4,5-dihydro-2H-pyrazolo[4,3-b]pyridin-6-yl)-1H-benzo[d]imidazole-6-carboxamide] | – | – | 1.37
4 | CC(C)[C@H](Nc1c(-c2nc3cnc(N(C)C)cc3[nH]2)c(=O)[nH]c2cn(C)nc12)c1ncccn1 (single isomer, unassigned) [Compound 11, (S*)-6-(6-(dimethylamino)-1H-imidazo[4,5-c]pyridin-2-yl)-2-methyl-7-((2-methyl-1-(pyrimidin-2-yl)propyl)amino)-2H-pyrazolo[4,3-b]pyridin-5 (4H)-one] | – | – | 1.84
5 | COc1ccc2[nH]c(-c3c(NC(c4ncccn4)C(C)C)c4nn(C)cc4[nH]c3=O)nc2c1 (single isomer, unassigned) [Compound 15, (S*)-6-(5-Methoxy-1H-benzo[d]imidazol-2-yl)-2-methyl-7-((2-methyl-1-(pyrimidin-2-yl)-propyl)amino)-2H-pyrazolo[4,3-b]pyridin-5 (4H)-one] | – | – | 1.33
6 | CC(C)C(Nc1c(-c2nc3cnccc3[nH]2)c(=O)[nH]c2cn(C)nc12)c1ncccn1 (single isomer, unassigned) [Compound 24, (S*)-6-(1H-imidazo[4,5-c]pyridin-2-yl)-2-methyl-7-((2-methyl-1-(pyrimidin-2-yl)propyl)-amino)-2H-pyrazolo[4,3-b]pyridin-5 (4H)-one] | – | – | 3.01
7 | COC[C@@H](Nc1c(-c2nc3cc(OC)c(OC)cc3[nH]2)c(=O)[nH]c2cn(C)nc12)c1ncccn1 (single isomer, unassigned) [Compound 25, (S*)-6-(5,6-dimethoxy-H-benzo[d]imidazol-2-yl)-7-((2-methoxy-1-(pyrimidin-2-yl)-ethyl)amino)-2-methyl-2H-pyrazolo[4,3-b]pyridin-5 (4H)-one] | – | – | 4.55
8 | COc1cnc2nc(-c3c(NC(c4ncccn4)C(C)C)c4nn(C)cc4[nH]c3=O)[nH]c2c1 (single isomer, unassigned) [Compound 39, (R*)-6-(6-methoxy-1H-imidazo[4,5-b]pyridin-2-yl)-2-methyl-7-((2-methyl-1-(pyrimidin-2-yl)propyl)amino)-2,4-dihydro-5H-pyrazolo[4,3-b]pyridin-5-one] | 0.263 | 0.0486 | –
9 | CCn1cc2[nH]c(=O)c(-c3nc4cc(OC)c(OC)cc4[nH]3)c(N[C@@H](C)c3ncccn3)c2n1 [Compound 37, (S)-6-(5,6-dimethoxy-1H-benzo[d]imidazol-2-yl)-2-ethyl-7-((1-(pyrimidin-2-yl)ethyl)-amino)-2H-pyrazolo[4,3-b]pyridin-5 (4H)-one] | 0.00183 | 0.000673 | –

Now from value to molecule, other results behind:

Row | IC50 [2] [µM] | IC50 [3] [µM] | Compound | IC50 [1] [µM]
10 | 1.83 | 0.375 | COCC(Nc1c(-c2nc3ccc(OC)cc3[nH]2)c(=O)[nH]c2cn(C)nc12)c1ncccn1 (single isomer, unassigned) [Compound 13, (R*)-7-((2-methoxy-1-(pyrimidin-2-yl)ethyl)amino)-6-(6-methoxy-1H-benzo[d]imidazol-2-yl)-2-methyl-2H-pyrazolo[4,3-b]pyridin-5 (4H)-one] | –
11 | 0.0719 | 0.0118 | CCC(Nc1c(-c2nc3cnc(N(C)C)cc3[nH]2)c(=O)[nH]c2cn(C)nc12)c1ncccn1 (single isomer, unassigned) [Compound 14, (S*)-6-(6-(dimethylamino)-1H-imidazo[4,5-c]pyridin-2-yl)-2-methyl-7-((1-(pyrimidin-2-yl)propyl)amino)-2H-pyrazolo[4,3-b]pyridin-5 (4H)-one] | –
12 | 1.24 | 0.243 | COCC(Nc1c(-c2nc3cnc(OC)cc3[nH]2)c(=O)[nH]c2cn(C)nc12)c1ncccn1 (single isomer, unassigned) [Compound 19, (S*)-7-((2-methoxy-1-(pyrimidin-2-yl)ethyl)amino)-6-(6-methoxy-1H-imidazo[4,5-c]-pyridin-2-yl)-2-methyl-2H-pyrazolo[4,3-b]pyridin-5 (4H)-one] | –
13 | 0.0224 | 0.00467 | COCC(Nc1c(-c2nc3cnc(OC)cc3[nH]2)c(=O)[nH]c2cn(C)nc12)c1ncccn1 (single isomer, unassigned) [Compound 20, (R*)-7-((2-methoxy-1-(pyrimidin-2-yl)ethyl)amino)-6-(6-methoxy-1H-imidazo[4,5-c]-pyridin-2-yl)-2-methyl-2H-pyrazolo[4,3-b]pyridin-5 (4H)-one] | –
14 | 0.79 | 0.218 | COCC(Nc1c(-c2nc3cc(OC)c(OC)cc3[nH]2)c(=O)[nH]c2cn(C)nc12)c1ncccn1 (single isomer, unassigned) [Compound 26, (R*)-6-(5,6-dimethoxy-1H-benzo[d]imidazol-2-yl)-7-((2-methoxy-1-(pyrimidin-2-yl)-ethyl)amino)-2-methyl-2H-pyrazolo[4,3-b]pyridin-5 (4H)-one] | –
15 | 0.0237 | 0.00416 | CCn1cc2[nH]c(=O)c(-c3nc4ccc(OC)cc4[nH]3)c(N[C@@H](C)c3cocn3)c2n1 (single isomer, unassigned) [Compound 33, (S*)-2-ethyl-6-(6-methoxy-1H-benzo[d]imidazol-2-yl)-7-((1-(oxazol-4-yl)ethyl)amino)-2H-pyrazolo[4,3-b]125yridine-5 (4H)-one] | –
16 | 0.298 | 0.0805 | COCCOc1cc2[nH]c(-c3c(NC(c4ncccn4)C(C)C)c4nn(C)cc4[nH]c3=O)nc2cc1OC (single isomer, unassigned) [Compound 35, (R*)-6-(5-methoxy-6-(2-methoxyethoxy)-1H-benzo[d]imidazol-2-yl)-2-methyl-7-((2-methyl-1-(pyrimidin-2-yl)propyl)amino)-2H-pyrazolo[4,3-b]pyridin-5 (4H)-one] | –
17 | 0.138 | 0.0432 | CCC(Nc1c(-c2nc3cc(OC)c(OC)cc3[nH]2)c(=O)[nH]c2cn(C)nc12)c1ncccn1 (single isomer, unassigned) [Compound 43, (R*)-6-(5,6-dimethoxy-1H-benzo[d]imidazol-2-yl)-2-methyl-7-((1-(pyrimidin-2-yl)-propyl)amino)-2H-pyrazolo[4,3-b]pyridin-5 (4H)-one] | –
18 | 0.0996 | 0.0238 | COc1cc2nc(-c3c(NC(c4ncccn4)C4CC4)c4nn(C)cc4[nH]c3=O)[nH]c2cc1OC (single isomer, unassigned) [Compound 47, (R*)-7-((cyclopropyl(pyrimidin-2-yl)methyl)amino)-6-(5,6-dimethoxy-1H-benzo[d]-imidazol-2-yl)-2-methyl-2H-pyrazolo[4,3-b]pyridin-5 (4H)-one] | –
19 | 0.15 | 0.0595 | CCC(Nc1c(-c2nc3ccc(OCCOC)cc3[nH]2)c(=O)[nH]c2cn(C)nc12)c1ncccn1 (single isomer, unassigned) [Compound 49, (R*)-6-(6-(2-methoxyethoxy)-1H-benzo[d]imidazol-2-yl)-2-methyl-7-((1-(pyrimidin-2-yl)propyl)amino)-2H-pyrazolo[4,3-b]pyridin-5 (4H)-one] | –
20 | 1.24 | 0.347 | CC[C@@H](Nc1c(-c2nc3cnc(N(C)C)cc3[nH]2)c(=O)[nH]c2cn(C)nc12)c1ncccn1 [Compound 21, (R)-6-(6-(dimethylamino)-1H-imidazo[4,5-c]pyridin-2-yl)-2-methyl-7-((1-(pyrimidin-2-yl)propyl)amino)-2H-pyrazolo[4,3-b]pyridin-5 (4H)-one] | –
